Our source for the Ki values is BindingDB's records for doi:10.1021/jm00055a007 (Abbott Laboratories, 1993).

For this assay, the target named is Gonadotropin-releasing hormone receptor (Rattus norvegicus) (UniProt P30969).

Square brackets hold non-standard residues; d marks the D form. Peptide text beside a SMILES is read from it. 1Nal = N[C@@H](Cc1cccc2ccccc12)C(=O)O; pGlu = O=C1CC[C@@H](C(=O)O)N1; NMeS = CN[C@@H](CO)C(=O)O

Gonadotropin-releasing hormone receptor (Rattus norvegicus), sequence (P30969 whole entry, looked up): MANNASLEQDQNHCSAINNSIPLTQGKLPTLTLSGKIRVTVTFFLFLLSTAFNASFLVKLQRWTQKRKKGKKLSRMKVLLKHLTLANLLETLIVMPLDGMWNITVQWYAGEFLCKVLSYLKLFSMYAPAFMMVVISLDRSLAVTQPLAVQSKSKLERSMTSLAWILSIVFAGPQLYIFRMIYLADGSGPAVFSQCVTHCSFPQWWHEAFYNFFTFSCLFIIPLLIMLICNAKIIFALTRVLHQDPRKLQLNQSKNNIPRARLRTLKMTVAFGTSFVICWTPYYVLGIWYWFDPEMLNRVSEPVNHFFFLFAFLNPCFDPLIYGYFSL

On to `CC(C)C[C@H](NC(=O)CNC(=O)[C@H](Cc1ccc(O)cc1)NC(=O)[C@H](CO)NC(=O)[C@H](Cc1c[nH]c2ccccc12)NC(=O)[C@H](Cc1cnc[nH]1)NC(=O)[C@@H]1CCC(=O)N1)C(=O)N[C@@H](CCCN=C(N)N)C(=O)N1CCC[C@H]1C(=O)NCC(=O)O` [CAS_35263-73-1], for which the Ki – broadly, the dissociation constant of the complex between target and ligand, obtained from inhibition or displacement – came to 1.26 nM.

`CCNC(=O)[C@@H]1CCCN1C(=O)[C@H](CCCN=C(N)N)NC(=O)[C@H](CC(C)C)NC(=O)[C@@H](Cc1c[nH]c2ccccc12)NC(=O)[C@H](Cc1ccc(O)cc1)NC(=O)[C@H](CO)NC(=O)[C@H](Cc1c[nH]c2ccccc12)NC(=O)[C@H](Cc1cnc[nH]1)N(C)C(=O)[C@@H]1CCC(=O)N1` [deslorelin 2NMeHis] had a Ki of 1.41 nM.

Consider `CCNC(=O)[C@@H]1CCCN1C(=O)[C@H](CCCN=C(N)N)NC(=O)[C@H](CC(C)C)NC(=O)[C@@H](Cc1c[nH]c2ccccc12)NC(=O)[C@H](Cc1ccc(O)cc1)NC(=O)[C@H](CO)NC(=O)[C@H](Cc1cccc2ccccc12)N(C)C(=O)[C@H](Cc1c[nH]cn1)NC(=O)[C@@H]1CCC(=O)N1` [deslorelin 3NMe1Nal], for which the Ki came out at 1 nM.

With `CCNC(=O)[C@@H]1CCCN1C(=O)[C@H](CCCN=C(N)N)NC(=O)[C@H](CC(C)C)NC(=O)[C@@H](Cc1c[nH]c2ccccc12)NC(=O)[C@H](Cc1ccc(O)cc1)N(C)C(=O)[C@H](CO)NC(=O)[C@H](Cc1c[nH]c2ccccc12)NC(=O)[C@H](Cc1c[nH]cn1)NC(=O)[C@@H]1CCC(=O)N1` [deslorelin 5NMeTyr], affinity was put at a Ki of 0.09 nM.

The molecule `CCNC(=O)[C@@H]1CCCN1C(=O)[C@H](CCCN=C(N)N)NC(=O)[C@H](CC(C)C)N(C)C(=O)[C@@H](Cc1c[nH]c2ccccc12)NC(=O)[C@H](Cc1ccc(O)cc1)NC(=O)[C@H](CO)NC(=O)[C@H](Cc1c[nH]c2ccccc12)NC(=O)[C@H](Cc1cnc[nH]1)NC(=O)[C@@H]1CCC(=O)N1` [deslorelin 7NMeLeu] had an inhibition constant (Ki) of 0.06 nM.

Regarding `CCNC(=O)[C@@H]1CCCN1C(=O)[C@H](CCCN=C(N)N)N(C)C(=O)[C@H](CC(C)C)NC(=O)[C@@H](Cc1c[nH]c2ccccc12)NC(=O)[C@H](Cc1ccc(O)cc1)NC(=O)[C@H](CO)NC(=O)[C@H](Cc1c[nH]c2ccccc12)NC(=O)[C@H](Cc1cnc[nH]1)NC(=O)[C@@H]1CCC(=O)N1` [deslorelin 8NMeArg], the affinity corresponds to a Ki of 0.31 nM.

The molecule `CC(C)C[C@H](NC(=O)[C@@H](Cc1c[nH]c2ccccc12)NC(=O)[C@H](Cc1ccc(O)cc1)NC(=O)[C@H](CO)NC(=O)[C@H](Cc1c[nH]c2ccccc12)NC(=O)[C@H](Cc1c[nH]cn1)NC(=O)[C@@H]1CCC(=O)N1)C(=O)N[C@@H](CCCN=C(N)N)C(=O)N1CCC[C@H]1C(=O)N(C)CC(N)=O` [deslorelin 10SarNH2] showed a Ki of 0.32 nM.

With `CCNC(=O)[C@@H]1CCCN1C(=O)[C@H](CCCN=C(N)N)NC(=O)[C@H](CC(C)C)NC(=O)[C@@H](Cc1c[nH]c2ccccc12)NC(=O)[C@H](Cc1ccc(O)cc1)NC(=O)[C@H](CO)NC(=O)[C@H](Cc1cccc2ccccc12)NC(=O)[C@H](Cc1cnc[nH]1)NC(=O)[C@@H]1CCC(=O)N1` [deslorelin 31Nal], the Ki amounted to 0.02 nM.

With `CCNC(=O)[C@@H]1CCCN1C(=O)[C@H](CCCN=C(N)N)NC(=O)[C@H](CC(C)C)NC(=O)[C@@H](Cc1c[nH]c2ccccc12)NC(=O)[C@H](Cc1ccc(O)cc1)NC(=O)[C@H](CO)NC(=O)[C@H](Cc1c[nH]c2ccccc12)NC(=O)[C@H](Cc1cnc[nH]1)NC(=O)[C@@H]1CCC(=O)N1` [deslorelin], the Ki stood at 0.01 nM.

In the case of `CCNC(=O)[C@@H]1CCCN1C(=O)[C@H](CCCN=C(N)N)NC(=O)[C@H](CC(C)C)NC(=O)[C@@H](CC(C)C)NC(=O)[C@H](Cc1ccc(O)cc1)NC(=O)[C@H](CO)NC(=O)[C@H](Cc1c[nH]c2ccccc12)NC(=O)[C@H](Cc1cnc[nH]1)N(C)C(=O)[C@@H]1CCC(=O)N1` [leuprolide 2 NMeHis], the Ki came out at 33.1 nM.

On to `CCNC(=O)[C@@H]1CCCN1C(=O)[C@H](CCCN=C(N)N)NC(=O)[C@H](CC(C)C)NC(=O)[C@@H](CC(C)C)NC(=O)[C@H](Cc1ccc(O)cc1)NC(=O)[C@H](CO)NC(=O)[C@H](Cc1c[nH]c2ccccc12)NC(=O)[C@H](Cc1ccccc1)NC(=O)[C@@H]1CCC(=O)N1` [leuprolide 2 Phe] ([pGlu]FWSY[dL]LRP-NHEt), for which the Ki was determined as 2.19 nM.

Molecule `CCNC(=O)[C@@H]1CCCN1C(=O)[C@H](CCCN=C(N)N)NC(=O)[C@H](CC(C)C)NC(=O)[C@@H](CC(C)C)NC(=O)[C@H](Cc1ccc(O)cc1)NC(=O)[C@H](CO)NC(=O)[C@H](Cc1c[nH]c2ccccc12)NC(=O)[C@H](Cc1ccccc1)N(C)C(=O)[C@@H]1CCC(=O)N1` [leuprolide 2NMePhe] yielded an inhibition constant Ki of 12 nM.

As for `CCNC(=O)[C@@H]1CCCN1C(=O)[C@H](CCCN=C(N)N)NC(=O)[C@H](CC(C)C)NC(=O)[C@@H](CC(C)C)NC(=O)[C@H](Cc1ccc(O)cc1)NC(=O)[C@H](CO)NC(=O)[C@H](Cc1cccc2ccccc12)N(C)C(=O)[C@H](Cc1c[nH]cn1)NC(=O)[C@@H]1CCC(=O)N1` [leuprolide 3NMe1Nal], the Ki was 3.24 nM.

Take `CCNC(=O)[C@@H]1CCCN1C(=O)[C@H](CCCN=C(N)N)NC(=O)[C@H](CC(C)C)NC(=O)[C@@H](CC(C)C)NC(=O)[C@H](Cc1ccc(O)cc1)NC(=O)[C@H](CO)N(C)C(=O)[C@H](Cc1c[nH]c2ccccc12)NC(=O)[C@H](Cc1c[nH]cn1)NC(=O)[C@@H]1CCC(=O)N1` [leuprolide 4NMeSer] ([pGlu]HW[NMeS]Y[dL]LRP-NHEt): affinity was put at a Ki of 1.41 nM.

The molecule `CCNC(=O)[C@@H]1CCCN1C(=O)[C@H](CCCN=C(N)N)NC(=O)[C@H](CC(C)C)NC(=O)[C@@H](CC(C)C)N(C)C(=O)[C@H](Cc1ccc(O)cc1)NC(=O)[C@H](CO)NC(=O)[C@H](Cc1c[nH]c2ccccc12)NC(=O)[C@H](Cc1cnc[nH]1)NC(=O)[C@@H]1CCC(=O)N1` [leuprolide 6NMeDLeu] showed a Ki of 3.8 nM.

Molecule `CCNC(=O)[C@@H]1CCCN1C(=O)[C@H](CCCN=C(N)N)NC(=O)[C@H](CC(C)C)N(C)C(=O)[C@@H](CC(C)C)NC(=O)[C@H](Cc1ccc(O)cc1)NC(=O)[C@H](CO)NC(=O)[C@H](Cc1c[nH]c2ccccc12)NC(=O)[C@H](Cc1c[nH]cn1)NC(=O)[C@@H]1CCC(=O)N1` [leuprolide 7NMeLeu] came in with a Ki of 0.16 nM.

Consider `CCNC(=O)[C@@H]1CCCN1C(=O)[C@H](CCCN=C(N)N)N(C)C(=O)[C@H](CC(C)C)NC(=O)[C@@H](CC(C)C)NC(=O)[C@H](Cc1ccc(O)cc1)NC(=O)[C@H](CO)NC(=O)[C@H](Cc1c[nH]c2ccccc12)NC(=O)[C@H](Cc1c[nH]cn1)NC(=O)[C@@H]1CCC(=O)N1` [leuprolide 8NMeArg], for which the Ki is 347 nM.

Turning to `CCNC(=O)[C@@H]1CCCN1C(=O)[C@H](CCCN=C(N)N)NC(=O)[C@H](CC(C)C)NC(=O)[C@@H](CC(C)C)NC(=O)[C@H](Cc1ccc(O)cc1)NC(=O)[C@H](CO)NC(=O)[C@H](Cc1cccc2ccccc12)NC(=O)[C@H](Cc1c[nH]cn1)NC(=O)[C@@H]1CCC(=O)N1` [leuprolide 31Nal] ([pGlu]H[1Nal]SY[dL]LRP-NHEt), the inhibition constant (Ki) stood at 0.09 nM.

For `CC(C)C[C@H](NC(=O)[C@@H](Cc1ccc2ccccc2c1)NC(=O)[C@H](Cc1ccc(O)cc1)NC(=O)[C@H](CO)NC(=O)[C@H](Cc1c[nH]c2ccccc12)NC(=O)[C@H](Cc1cnc[nH]1)N(C)C(=O)[C@@H]1CCC(=O)N1)C(=O)N[C@@H](CCCN=C(N)N)C(=O)N1CCC[C@H]1C(=O)NCC(N)=O` [nafarelin 2NMeHis], the Ki was 1.41 nM.
